From the supplement of paper PMC10307832

Legend:
Test in all cases: relative viability (nuclei count vs DMSO), 5 days (fraction); higher = more cells survive
Carfilzomib + Trametinib = compound: CC(C)C[C@H](NC(=O)[C@H](CCc1ccccc1)NC(=O)CN1CCOCC1)C(=O)N[C@@H](Cc1ccccc1)C(=O)N[C@@H](CC(C)C)C(=O)[C@@]1(C)CO1 [Carfilzomib] + CC(=O)Nc1cccc(-n2c(=O)n(C3CC3)c(=O)c3c(Nc4ccc(I)cc4F)n(C)c(=O)c(C)c32)c1 [Trametinib] (partner 0.02 µM)
Summary of the method: (§1)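 The day after seeding in 1536-well plates, lung cancer cell lines were treated by pin tool with a single drug, or with a fixed anchor-drug dose together with five library-drug doses (not always all listed) in √10 steps. After 5 days, a combined fix-and-stain solution (final 0.05% Triton X-100, 1% formaldehyde, 1 ug/ml Hoechst) was added. Nuclei counted on 4× images gave relative viability as treated counts over vehicle counts, reported as the median of duplicate plates.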

Crizotinib + Phenformin = compound: C[C@@H](Oc1cc(-c2cnn(C3CCNCC3)c2)cnc1N)c1c(Cl)ccc(F)c1Cl [Crizotinib] + N=C(N)NC(=N)NCCc1ccccc1 [Phenformin] (partner 250 µM)
Summary of the method: as §1

Olaparib + AZD7762 = compound: O=C(c1cc(Cc2n[nH]c(=O)c3ccccc23)ccc1F)N1CCN(C(=O)C2CC2)CC1 [Olaparib] + NC(=O)Nc1cc(-c2cccc(F)c2)sc1C(=O)N[C@H]1CCCNC1 [AZD7762] (partner 0.2 µM)
Summary of the method: as §1

Olaparib + Luminespib = compound: O=C(c1cc(Cc2n[nH]c(=O)c3ccccc23)ccc1F)N1CCN(C(=O)C2CC2)CC1 [Olaparib] + CCNC(=O)c1noc(-c2cc(C(C)C)c(O)cc2O)c1-c1ccc(CN2CCOCC2)cc1 [Luminespib] (partner 0.01 µM)
Summary of the method: as §1

| Cell Line | relative viability (Carfilzomib + Trametinib; first compound 0.001 µM) | relative viability (Carfilzomib + Trametinib; first compound 0.003162 µM) | relative viability (Carfilzomib + Trametinib; first compound 0.01 µM) | relative viability (Carfilzomib + Trametinib; first compound 0.03162 µM) | relative viability (Carfilzomib + Trametinib; first compound 0.1 µM) | relative viability (Crizotinib + Phenformin; first compound 0.01 µM) | relative viability (Crizotinib + Phenformin; first compound 0.03162 µM) | relative viability (Crizotinib + Phenformin; first compound 0.1 µM) | relative viability (Crizotinib + Phenformin; first compound 1 µM) | relative viability (Olaparib + AZD7762; first compound 0.08 µM) | relative viability (Olaparib + AZD7762; first compound 0.253 µM) | relative viability (Olaparib + AZD7762; first compound 2.53 µM) | relative viability (Olaparib + AZD7762; first compound 8 µM) | relative viability (Crizotinib + Phenformin; first compound 0.3162 µM) | relative viability (Olaparib + Luminespib; first compound 0.08 µM) | relative viability (Olaparib + Luminespib; first compound 0.253 µM) | relative viability (Olaparib + Luminespib; first compound 2.53 µM) | relative viability (Olaparib + Luminespib; first compound 8 µM) |
| --- | --- | --- | --- | --- | --- | --- | --- | --- | --- | --- | --- | --- | --- | --- | --- | --- | --- | --- |
| HCC-366 | 0.345 | 0.388 | 0.405 | 0.293 | 0.0458 | 0.597 | 0.609 | 0.65 | 0.695 | 0.258 | 0.196 | 0.168 | 0.0718 |  |  |  |  |  |
| HCC-827 | 0.566 | 0.542 | 0.534 | 0.491 | 0.191 | 0.359 | 0.397 | 0.412 | 0.397 | 0.259 | 0.214 | 0.239 | 0.224 | 0.346 | 0.544 | 0.585 | 0.629 | 0.368 |
| HOP-62 | 0.385 | 0.38 | 0.363 | 0.21 | 0.0811 | 0.7 | 0.625 | 0.731 | 0.714 | 0.43 | 0.614 | 0.463 | 0.155 | 0.556 | 1 | 0.809 | 0.744 | 0.476 |
| LC-2-ad | 0.9 | 0.97 | 0.881 | 0.917 | 0.471 | 0.572 | 0.6 | 0.544 | 0.544 | 0.89 | 0.76 | 0.851 | 0.727 | 0.463 | 1.11 | 0.865 | 0.765 | 0.811 |
| LCLC-97TM1 | 0.19 | 0.21 | 0.227 | 0.0729 | 0.0639 | 0.472 | 0.468 | 0.508 | 0.441 | 0.294 | 0.202 |  | 0.168 | 0.454 | 0.756 | 0.651 | 0.712 | 0.637 |
| NCI-H520 | 0.531 | 0.697 | 0.598 | 0.124 | 0.134 | 0.449 | 0.682 | 0.588 | 0.45 |  |  |  |  | 0.281 | 0.205 | 0.277 | 0.255 | 0.23 |
| NCI-H661 | 0.642 | 0.635 | 0.599 | 0.526 | 0.276 | 0.257 | 0.269 | 0.285 | 0.264 |  |  |  |  | 0.266 | 1.02 | 0.869 | 0.878 | 0.619 |
| NCI-H1563 |  |  |  |  |  | 0.607 | 0.681 | 0.655 | 0.682 |  |  |  |  | 0.637 | 1.21 | 0.475 | 0.538 | 0.481 |
| NCI-H1623 |  |  |  |  |  | 0.557 | 0.499 | 0.611 | 0.551 |  |  |  |  | 0.608 | 0.492 | 0.484 | 0.384 | 0.331 |
| NCI-H1648 | 0.685 | 0.566 | 0.592 | 0.394 | 0.261 |  |  |  |  | 0.831 | 0.75 |  | 0.544 |  |  |  |  |  |
| NCI-H1650 | 0.487 | 0.537 | 0.52 | 0.103 | 0.1 | 0.411 | 0.401 | 0.387 | 0.389 |  |  |  |  | 0.377 | 0.245 | 0.188 | 0.2 | 0.195 |
| NCI-H1703 |  |  |  |  |  |  |  |  |  | 0.119 | 0.193 | 0.143 | 0.141 |  |  |  |  |  |
| NCI-H2009 | 0.232 | 0.312 | 0.287 | 0.295 | 0.119 | 0.479 | 0.492 | 0.513 | 0.458 |  |  |  |  | 0.426 | 1.13 | 0.966 | 0.893 | 0.701 |
| NCI-H2023 | 0.486 | 0.614 | 0.669 | 0.269 | 0.0795 | 0.397 | 0.406 | 0.409 | 0.322 |  |  |  |  | 0.304 | 0.647 | 0.724 | 0.629 | 0.379 |
| NCI-H2228 | 0.235 | 0.584 | 0.697 | 0.103 | 0.109 | 0.23 | 0.241 | 0.29 | 0.164 |  |  |  |  | 0.172 | 0.146 | 0.132 | 0.145 | 0.117 |
| SK-LU-1 | 0.394 | 0.545 | 0.474 | 0.202 | 0.185 | 0.544 | 0.535 | 0.506 | 0.547 |  |  |  |  | 0.499 | 0.228 | 0.178 | 0.194 | 0.199 |
| SK-MES-1 | 0.545 | 0.536 | 0.549 | 0.44 | 0.201 | 0.617 | 0.676 | 0.638 | 0.593 |  |  |  |  | 0.645 | 0.841 | 0.774 | 0.727 | 0.604 |
| SW 1573 | 0.55 | 0.626 | 0.55 | 0.0697 | 0.0572 | 0.418 | 0.376 | 0.39 | 0.391 |  |  |  |  | 0.302 | 0.376 | 0.221 | 0.204 | 0.158 |
| UMC-11 | 0.32 | 0.739 | 0.657 | 0.703 | 0.322 | 0.259 | 0.339 | 0.321 | 0.306 |  |  |  |  | 0.27 | 1.06 | 0.855 | 0.683 | 0.414 |
